This passage reports energy transfer results from patent US7745413B2, “Collection of traceable compounds and uses thereof” (Centre National de la Recherche Scientifique (CNRS), priority 2004, dated 2010).

The experiment concerns the target T1, GPR50-EGFP receptor (Homo sapiens, UniProt Q13585).
T1 construct: signal peptide (SP) of the pCEP4-SP-EGFP vector (N); expressed in transfected cells
Nature of the experiment: Real-time measurement of energy transfer (FRET) between fluorescent ligand and GPR50-EGFP receptor on HEK 293 cells. As to conditions: ligand at 500 nM; excitation 470 nm, fluorescence at 510 nm; FIG. 6. In kind it is binding. From the text: The binding of certain molecules was verified with the spectrofluorimeter (equipment previously described (see Example 1)).

T1 sequence (Q13585 9-617 limits assumed): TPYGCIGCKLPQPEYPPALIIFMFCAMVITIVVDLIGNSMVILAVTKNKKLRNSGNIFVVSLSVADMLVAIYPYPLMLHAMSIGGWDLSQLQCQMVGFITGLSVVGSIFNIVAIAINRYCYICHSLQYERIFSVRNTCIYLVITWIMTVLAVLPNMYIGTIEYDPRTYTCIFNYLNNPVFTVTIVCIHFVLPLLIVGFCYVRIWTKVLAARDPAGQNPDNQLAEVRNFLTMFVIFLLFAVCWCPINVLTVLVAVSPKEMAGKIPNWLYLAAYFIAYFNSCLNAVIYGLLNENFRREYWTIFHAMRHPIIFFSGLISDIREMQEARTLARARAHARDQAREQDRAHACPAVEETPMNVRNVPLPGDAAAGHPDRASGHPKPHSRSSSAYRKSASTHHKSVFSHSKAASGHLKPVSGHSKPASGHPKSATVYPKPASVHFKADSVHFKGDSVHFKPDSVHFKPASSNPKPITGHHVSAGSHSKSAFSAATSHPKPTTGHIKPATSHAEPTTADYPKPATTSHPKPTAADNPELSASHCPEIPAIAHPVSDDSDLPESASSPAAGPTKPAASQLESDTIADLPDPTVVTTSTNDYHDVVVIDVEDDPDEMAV

`CCN(CCN(CC)C(=O)C(Cc1c[nH]c2ccccc12)NC(=O)C(CCCCNS(=O)(=O)c1ccc2c(c1)S(=O)(=O)OC21c2ccc(N(CC)CC)cc2Oc2cc(N(CC)CC)ccc21)NC(=O)C1=CCCN(C)C1)Cc1ccccc1` (stereo not shown) [FG 229 F4] returned an energy transfer of 2%.
